A short description of data set [1]: The drug is tested on Bifidobacterium breve strain: DSM20213 for biotransformation. The drug concentrations were measured before and after a 12-h incubation by liquid-chromatography-coupled mass spectrometry (LC–MS). The conditions noted are these: 2 µM.
Data set [2] is described as follows: The drug is tested on Bifidobacterium longum subsp. Infantis strain: CCUG52486 for biotransformation. The drug concentrations were measured before and after a 12-h incubation by liquid-chromatography-coupled mass spectrometry (LC–MS). The conditions noted are these: 2 µM.
Data set [3] can be described thus: The drug is tested on Collinsella aerofaciens strain: ATCC25986 for biotransformation. The drug concentrations were measured before and after a 12-h incubation by liquid-chromatography-coupled mass spectrometry (LC–MS). The conditions noted are these: 2 µM.
Data set [4] is described as follows: The drug is tested on Bacteroides coprophilus strain: DSM18228 for biotransformation. The drug concentrations were measured before and after a 12-h incubation by liquid-chromatography-coupled mass spectrometry (LC–MS). The conditions noted are these: 2 µM.
The nature of data set [5]: The drug is tested on Bacteroides ovatus strain: ATCC8483 for biotransformation. The drug concentrations were measured before and after a 12-h incubation by liquid-chromatography-coupled mass spectrometry (LC–MS). The conditions noted are these: 2 µM.
Data set [6] in a line: The drug is tested on Bacteroides sp. WH2 strain: WH2 for biotransformation. The drug concentrations were measured before and after a 12-h incubation by liquid-chromatography-coupled mass spectrometry (LC–MS). The conditions noted are these: bacteroides sp. wh2, 12 h, 2 µM.
Data set [7] in a line: The drug is tested on Bacteroides xylanisolvens strain: DSM18836 for biotransformation. The drug concentrations were measured before and after a 12-h incubation by liquid-chromatography-coupled mass spectrometry (LC–MS). The conditions noted are these: 2 µM.
The nature of data set [8]: The drug is tested on Clostridium ramosum strain: DSM1402 for biotransformation. The drug concentrations were measured before and after a 12-h incubation by liquid-chromatography-coupled mass spectrometry (LC–MS). The conditions noted are these: thomasclavelia ramosa, 2 µM.
Data set [9] can be described thus: The drug is tested on Enterococcus faecalis strain: V583 for biotransformation. The drug concentrations were measured before and after a 12-h incubation by liquid-chromatography-coupled mass spectrometry (LC–MS). The conditions noted are these: 2 µM.
The nature of data set [10]: The drug is tested on Eubacterium hallii strain: DSM3353 for biotransformation. The drug concentrations were measured before and after a 12-h incubation by liquid-chromatography-coupled mass spectrometry (LC–MS). The conditions noted are these: anaerobutyricum hallii, 2 µM.
Data set [11] in a line: The drug is tested on Eubacterium rectale strain: ATCC33656 for biotransformation. The drug concentrations were measured before and after a 12-h incubation by liquid-chromatography-coupled mass spectrometry (LC–MS). The conditions noted are these: agathobacter rectalis, 2 µM.
Data set [12] in a line: The drug is tested on Eubacterium ventriosum strain: ATCC27560 for biotransformation. The drug concentrations were measured before and after a 12-h incubation by liquid-chromatography-coupled mass spectrometry (LC–MS). The conditions noted are these: 2 µM. Set-up: dose 2 uM, timepoint 0 vs 12 hours. It is filed as ADME.
The nature of data set [13]: The drug is tested on Ruminococcus torques strain: ATCC27756 for biotransformation. The drug concentrations were measured before and after a 12-h incubation by liquid-chromatography-coupled mass spectrometry (LC–MS). It is filed as ADME. Set-up: dose 2 uM, timepoint 0 vs 12 hours. The conditions noted are these: 2 µM.
Data set [14] is described as follows: The drug is tested on Providencia stuartii strain: ATCC25827 for biotransformation. The drug concentrations were measured before and after a 12-h incubation by liquid-chromatography-coupled mass spectrometry (LC–MS). The conditions noted are these: 2 µM.
For data set [15] the following is noted: bifidobacterium adolescentis, 12 h, 2 µM.
Description: The drug is tested on Bifidobacterium adolescentis strain: ATCC 15703 for biotransformation. The drug concentrations were measured before and after a 12-h incubation by liquid-chromatography-coupled mass spectrometry (LC–MS)
The conditions of data set [16]: enterocloster bolteae, 12 h, 2 µM.
Description: The drug is tested on Clostridium bolteae strain: ATCCBAA-613 for biotransformation. The drug concentrations were measured before and after a 12-h incubation by liquid-chromatography-coupled mass spectrometry (LC–MS)
Data set [17] in a line: The drug is tested on Escherichia coli strain: BW25113 for biotransformation. The drug concentrations were measured before and after a 12-h incubation by liquid-chromatography-coupled mass spectrometry (LC–MS). The conditions noted are these: 2 µM.
For data set [18] the following is noted: parabacteroides johnsonii, 12 h, 2 µM.
Description: The drug is tested on Parabacteroides johnsonii strain: DSM18315 for biotransformation. The drug concentrations were measured before and after a 12-h incubation by liquid-chromatography-coupled mass spectrometry (LC–MS)
A short description of data set [19]: The drug is tested on Bacteroides fragilis strain: HMW615 for biotransformation. The drug concentrations were measured before and after a 12-h incubation by liquid-chromatography-coupled mass spectrometry (LC–MS). The conditions noted are these: 2 µM.

The structures appear in SMILES notation.

As to `CN(C)CCc1c[nH]c2ccc(CS(=O)(=O)N3CCCC3)cc12` [ALMOTRIPTAN], the “Bacterial Biotransformation” value in [1], in [2], in data set [3], in data set [4], in data set [5] and in data set [6] was “Compound NOT metabolized” throughout. Besides, the “Bacterial Biotransformation” value in [7], in [8], in data set [9], in [10], in data set [11] and in [12] was “Compound NOT metabolized” throughout. In addition, the “Bacterial Biotransformation” value in data set [13], in data set [14], in [15] and in data set [16] was “Compound NOT metabolized” throughout.

For `C=CCc1ccccc1OCC(O)CNC(C)C` (centres undefined) [ALPRENOLOL], the “Bacterial Biotransformation” value in data set [1], in [3], in data set [4], in data set [5], in data set [6] and in [7] was “Compound NOT metabolized” throughout. The “Bacterial Biotransformation” value in data set [10], in data set [11], in [12], in data set [13], in data set [14] and in data set [15] was “Compound NOT metabolized” in each case. In addition, in data set [16], the “Bacterial Biotransformation” value is recorded as “Compound NOT metabolized”.

`CC(C)NCC(O)COc1ccc(CC(N)=O)cc1` (centres undefined) [ATENOLOL]: the “Bacterial Biotransformation” value in data set [1], in data set [2], in [3], in data set [6], in data set [7] and in data set [9] was “Compound NOT metabolized” throughout. Further, the “Bacterial Biotransformation” value in data set [10], in data set [11], in [12], in data set [13], in data set [17] and in data set [14] was “Compound NOT metabolized” in each case. In addition, the “Bacterial Biotransformation” value in [15], in data set [18] and in data set [16] was “Compound NOT metabolized” throughout.

As for `CCCC1O[C@@H]2C[C@H]3[C@@H]4CCC5=CC(=O)C=C[C@]5(C)[C@H]4[C@@H](O)C[C@]3(C)[C@]2(C(=O)CO)O1` (some centres undefined) [BUDESONIDE], the “Bacterial Biotransformation” value was “Compound NOT metabolized” in data set [1]; “Compound NOT metabolized” in [2]; “Compound NOT metabolized” in [3]; “Compound NOT metabolized” in [4]; “Compound metabolized” in data set [19]; “Compound NOT metabolized” in data set [5]. In addition, the “Bacterial Biotransformation” value in data set [6], in data set [9], in data set [10], in [11], in data set [12] and in data set [13] was “Compound NOT metabolized” in each case. In addition, the “Bacterial Biotransformation” value is listed as “Compound NOT metabolized” in data set [17], “Compound NOT metabolized” in data set [15], “Compound metabolized” in data set [18] and “Compound NOT metabolized” in data set [16].

With `C[N+]12CCC(CC1)C(OC(=O)C(O)(c1ccccc1)c1ccccc1)C2.[Br-]` (centres undefined) [CLIDINIUM BROMIDE], the “Bacterial Biotransformation” value in data set [1], in [2], in [3], in data set [4], in data set [5] and in data set [6] was “Compound NOT metabolized” in each case. Further, the “Bacterial Biotransformation” value in data set [7], in data set [9], in data set [10], in data set [12], in [17] and in [14] was “Compound NOT metabolized” throughout. Moreover, the “Bacterial Biotransformation” value in data set [15] and in data set [18] was “Compound NOT metabolized” throughout.

In the case of `COC(=O)[C@H](c1ccccc1Cl)N1CCc2sccc2C1.O=S(=O)(O)O` [CLOPIDOGREL BISULFATE], the “Bacterial Biotransformation” value in [1] is recorded as “Compound NOT metabolized”; in data set [2], “Compound NOT metabolized”; in data set [3], “Compound NOT metabolized”; in data set [4] it was “Compound metabolized”; in [19], “Compound metabolized”; in data set [5], “Compound metabolized”. In addition, the “Bacterial Biotransformation” value in data set [6] is on record as “Compound NOT metabolized”; in [7], “Compound metabolized”; in data set [9] it was “Compound NOT metabolized”; in [10], “Compound NOT metabolized”; in data set [12], “Compound NOT metabolized”; in data set [13] it was “Compound NOT metabolized”. The “Bacterial Biotransformation” value in data set [17] is “Compound NOT metabolized”; in [14], “Compound NOT metabolized”; in [15] it was “Compound NOT metabolized”; in data set [18], “Compound metabolized”; in data set [16], “Compound NOT metabolized”.

On to `c1ccc([C@H]2CN3CCSC3=N2)cc1` [LEVAMISOLE], for which the “Bacterial Biotransformation” value in data set [1] is “Compound metabolized”; in [2] it was “Compound NOT metabolized”; in [3], “Compound metabolized”; in data set [4], “Compound metabolized”; in data set [5], “Compound metabolized”; in data set [6] it was “Compound NOT metabolized”. Besides, the “Bacterial Biotransformation” value is listed as “Compound metabolized” in [7]; “Compound NOT metabolized” in data set [9]; “Compound NOT metabolized” in [10]; “Compound NOT metabolized” in [11]; “Compound NOT metabolized” in data set [12]; “Compound NOT metabolized” in data set [13]. For the same compound, the “Bacterial Biotransformation” value in data set [17] is recorded as “Compound metabolized”; in data set [14], “Compound metabolized”; in data set [15], “Compound NOT metabolized”; in [18] it was “Compound metabolized”; in [16], “Compound metabolized”.

For the compound `Cc1nc2n(c(=O)c1CCN1CCC(c3noc4cc(F)ccc34)CC1)CCCC2` [RISPERIDONE], the “Bacterial Biotransformation” value in [1] is reported as “Compound metabolized”; in data set [2] it was “Compound NOT metabolized”; in data set [3], “Compound NOT metabolized”; in [4], “Compound NOT metabolized”; in data set [5], “Compound NOT metabolized”; in [6], “Compound NOT metabolized”. Also, the “Bacterial Biotransformation” value was “Compound NOT metabolized” in data set [7]; “Compound metabolized” in data set [9]; “Compound metabolized” in data set [10]; “Compound metabolized” in data set [11]; “Compound NOT metabolized” in data set [12]; “Compound NOT metabolized” in [13]. In addition, the “Bacterial Biotransformation” value in data set [17], in data set [15], in data set [18] and in data set [16] was “Compound NOT metabolized” each time.

(Values after ChEMBL document CHEMBL5303573, “Mapping human microbiome drug metabolism by gut bacteria and their genes” (Nature, 2019).)
